This note sets out measurements from patent US12059427B2, “Treatments for cachexia” (YINUOKE MEDICINE SCIENCE AND TECHNOLOGY COMPANY LTD., priority 2018, dated 2024).

“Also recorded” adds a separate entry of the source.

The subject of data set [1] is cachectic Balb/c mice injected with C26 tumor cells. Put plainly: Body weight of cachectic mice (C26 cachexia mouse model). The class given is in vivo.
For data set [2] the test system is unchanged. Put plainly: Kaplan-Meier survival analysis of cachectic mice (C26 model). The class given is in vivo, mouse.
Setting [3] is: 0.3 mg Cytarabine, 0.1 mg Ketorolac or combination (0.3 mg + 0.1 mg) in PBS s.c. on three consecutive days (1 cycle), 8 days observation, vs untreated.
Where [4] appears, read: ~50 day period, two 3-day/one-injection-per-day cycles s.c., 0.3 mg Cytarabine, 0.1 mg Ketorolac or combination vs PBS.

In the case of `O=C(c1ccccc1)c1ccc2n1CCC2C(=O)O` (stereo not drawn) [Ketorolac, Ketorolac tromethamine], in data set [1] (setting [3]), the “body weight of cachectic mice” value is “the body weight drop eventually reverses for all treated mice; also recorded: reverse body weight drop in cachectic mice”. In addition, the “survival (Kaplan-Meier)” value in data set [2] (setting [4]) is “finally ketorolac alone”.

`Nc1ccn([C@@H]2O[C@H](CO)[C@@H](O)[C@@H]2O)c(=O)n1` [Cytarabine, 1-(β-D-Arabinofuranosyl)cytosine]: in data set [1] (setting [3]), the “body weight of cachectic mice” value is reported as “the body weight drop eventually reverses for all treated mice; also recorded: reverse body weight drop in cachectic mice”. Moreover, the “transient weight loss after treatment” value in data set [1] (days 0-5 after start of treatment, 0.3 mg Cytarabine alone vs combination with 0.1 mg Ketorolac, s.c.) is “transient weight loss seen on days 0-5”. Also, the “survival (Kaplan-Meier)” value in data set [2] (setting [4]) is listed as “highly significant increase in survival; also recorded: prolong survival of cachectic mice”.

With `O=C(c1ccccc1)c1ccc2n1CC[C@H]2C(=O)O` [(R)-Ketorolac], the “body weight of cachectic mice” value is “reverse body weight drop” in data set [1] (0.05 mg orally, three consecutive days per cycle, 6 days/2 cycles, vs PBS); “regained body weight after initiation of the treatment and maintained stabilized body weight during the treatment” in data set [1] (0.05 mg orally, three consecutive days per cycle, 6 days/2 cycles, vs PBS, listed as (R)-ketorolac). Also, the “survival (Kaplan-Meier)” value in data set [2] (two cycles of daily oral administration, 40 day period, vs PBS vehicle) is “prolong survival of cachectic mice”; in data set [2] (two cycles of daily oral administration, 40 day period, vs PBS vehicle, listed as (R)-ketorolac), “significant efficacy as a single agent increasing the survival of cachectic mice”.
